Patent US20250099420A1, “SMALL MOLECULE MODULATORS OF GPR139 COMPLEX” (University of Florida Research Foundation, Incorporated, priority 2022, published 2025)

Legend:
[1] = target: T1, GPR139 (Homo sapiens, UniProt Q6DWJ6)
T1 sequence (Q6DWJ6 1-353): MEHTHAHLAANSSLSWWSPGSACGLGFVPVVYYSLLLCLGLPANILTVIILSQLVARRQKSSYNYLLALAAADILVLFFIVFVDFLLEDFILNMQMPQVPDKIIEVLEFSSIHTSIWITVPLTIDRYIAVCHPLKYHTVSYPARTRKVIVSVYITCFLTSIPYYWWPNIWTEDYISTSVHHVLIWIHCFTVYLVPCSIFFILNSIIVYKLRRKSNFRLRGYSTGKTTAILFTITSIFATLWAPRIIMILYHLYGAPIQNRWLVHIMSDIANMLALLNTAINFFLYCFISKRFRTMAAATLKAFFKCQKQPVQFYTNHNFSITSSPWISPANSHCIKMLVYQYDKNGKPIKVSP
Protocol: (§1) GPR activity was assessed using a calcium detection assay. GPR139 agonists stimulate an increase in intracellular calcium in HEK-GPR139 cells. Agonists increase the release of intracellular calcium, while antagonists decrease the release of intracellular calcium, as compared to an EC80 stimulation of the know agonist S-JNJ-63533054. The positive control for the agonist mode was cells treated with EC100 of known agonist S-JNJ-63533054. Negative control samples were treated with DMSO. The antagonist high control in cells was EC80 of S-JNJ-63533054+IC100 S-JNJ-3792165, while cells were treated with EC80 of S-JNJ-63533054+DMSO for the low control. Intracellular calcium was measured using Calcium 5.
(§2) HEK cells were transfected the DNA encoding GPR139 and incubated for 24 hours. 3000 cells/well in 3 μL HEPES and 1% DMSO were seeded into 1536-well plates. 3 μL Calcium 5 was then added to each well and cells were incubated for 60 min. at 37° C. in 5% CO2 and 95% relative humidity. Cells were pretreated with 50 nL DMSO (5 min. at room temperature in the dark) to stabilize response and desensitize cells to DMSO. A 5 second basal read was recorded and compounds in 30 nL were added to the cells, followed by a 150 second read.
(§3) B. Antagonist Mode: The “High Control” represented wells containing cells with GPR139+Antagonist IC100+Agonist EC80. “Low Control” represented wells containing cells with GPR139 with EC100 Agonist. “0% control” and sample field represented wells containing cells with GPR139 with EC80 Agonist with DMSO or compounds. The Z′ and S:B for this assay were calculated using the High Control and Low Control wells.
(§4) The HEK parental counterscreen utilized the same cells but not transfected with the plasmid. Acetylcholine was used in place of GPR139 agonist as the control compound. The cells were plated overnight, similar to the HEK antagonist counterscreen protocol.
(§5) The GPR139 Agonist and Antagonist titration assays employed the same reagents, protocols, and detection systems as the primary assays, but tested each as 10 point dose response starting at 676 nM concentration in triplicate with 1:3 dilutions. The HEK parental counterscreens utilized the same cells but not transfected with the plasmid. Acetylcholine was used in place of GPR139 agonist as the control compound. The cells were plated overnight, similar to the HEK antagonist counterscreen protocol.
(§6) For each test compound, percent activation was plotted against compound concentration. A four parameter equation describing a sigmoidal dose-response curve was then fitted with adjustable baseline using Assay Explorer software (Symyx Technologies Inc.).

[2] = target: T1, GPR139; assay: GPR139 Agonist titration / agonist counterscreen assay (calcium detection, HEK-GPR139 cells); format: cell-based; set-up: expressed in transfected cells; host or cells: HEK Aequorin cells, Maxcyte transient transfection; details: agonist counterscreen of the antagonists; for EC50: scientific notation, molarity, read-out: GRP139 Agonist activity EC50
Protocol: GPR activity was assessed using a calcium detection assay. […] Negative control samples were treated with DMSO. […] Intracellular calcium was measured using Calcium 5.

[3] = test system: parental HEK cells; assay: HEK parental Antagonist Counterscreen Assay (non-transfected cells, acetylcholine control); format: cell-based
Source text: C. […] The HEK parental counterscreen utilized the same cells but not transfected with the plasmid. The agonist and antagonist modes were run the same way as the primary screen but acetylcholine was used in place of GPR139 agonist as the control compound.
The HEK parental counterscreen utilized the same cells but not transfected with the plasmid. The antagonist modes assays utilized the cells being plated in the 1536 well plate overnight in growth media prior to dye loading in PDL coated plates and acetylcholine was used in place of GPR139 agonist as the control compound.
as §4
The HEK parental counterscreens utilized the same cells but not transfected with the plasmid. Acetylcholine was used in place of GPR139 agonist as the control compound. The cells were plated overnight, similar to the HEK antagonist counterscreen protocol.
as §6

[4] = target: T1, GPR139; assay: GPR139 Antagonist titration assay (calcium detection, HEK-GPR139 cells, vs EC80 of S-JNJ-63533054); details: for GPR139 Antagonist Activity Averaged Max % Response (±St. Dev.): activity relative to known control; for GPR139 Antagonist Activity Hill Slope: fitted dose-response curve
Protocol: as §1, §2, §3, §4, §5, §6

SMILES | GPR139 Antagonist Activity Lipophilic Efficiency (logD) [1] | GPR139 Antagonist Activity Lipophilic Efficiency (logP) [1] | GRP139 Agonist activity Averaged Max % Response (±St. Dev.) [2] | EC50 [2] | GPR139 Antagonist Activity Ligand Efficiency [4] | GPR139 Antagonist Activity Averaged Max % Response (±St. Dev.) [4] | GPR139 Antagonist Activity Hill Slope [4] | GRP139 Agonist activity Hill Slope [2] | HEK antagonist activity Averaged Max % Response (±St. Dev.) [3]
Cc1ccc(-n2cc(-c3ccccc3)nc2SCC(=O)Nc2ccc(F)cc2)cc1 [SR-01000555461] | −954.3E−3 | −954.4E−3 | 5.29 ± 2.24% | > 14 µM | 0.25 | 77.29 ± 7.71% | 1.40 |  | 0.37 ± 8.79%
Cc1ccc(CNC(=O)CSc2nc3ccsc3c(=O)n2NC(=O)c2cccc(Br)c2)cc1 [SR-01000564946] | 0.81 | 0.81 | 1.62 ± 7.06% | > 12.1 µM | 0.24 | 86.39 ± 3.49% | 0.71 |  | 30.88 ± 11.77%
O=C(NCCCN1CCCC1=O)c1ccc(NCc2ccc(F)cc2)c(S(=O)(=O)Nc2cccc(C(F)(F)F)c2)c1 [SR-01000575726] | 2.05 | 1.85 | 4.26 ± 2.46% | > 13.9 µM | 0.18 | 68.96 ± 6.17% | 0.63 |  | 42.61 ± 24.54%

Continued, in another order:

GPR139 Antagonist Activity Lipophilic Efficiency (logD) [1] | GPR139 Antagonist Activity Lipophilic Efficiency (logP) [1] | GRP139 Agonist activity Averaged Max % Response (±St. Dev.) [2] | EC50 [2] | GPR139 Antagonist Activity Ligand Efficiency [4] | GPR139 Antagonist Activity Averaged Max % Response (±St. Dev.) [4] | GPR139 Antagonist Activity Hill Slope [4] | GRP139 Agonist activity Hill Slope [2] | SMILES | HEK antagonist activity Averaged Max % Response (±St. Dev.) [3]
−768.6E−3 | −768.8E−3 | 13.90 ± 4.27% | > 13.2 µM | 0.28 | 90.42 ± 3.10% | 0.57 |  | Cc1cccc(-n2cc(-c3ccccc3)nc2SCC(=O)Nc2ccccc2C)c1 [SR-01000555475] | 9.07 ± 0.74%
−850.1E−3 | −850.1E−3 | 9.47 ± 9.31% | > 12.1 µM | 0.23 | 81.12 ± 9.72% | 0.67 |  | CCc1ccccc1NC(=O)CSc1nnc(-c2ccccc2)c(-c2ccccc2)n1 [SR-01000581835] | 8.20 ± 4.35%
−546.E−3 | −780.8E−3 | 96.44 ± 1.50% | 13.2 µM | 0.18 | 94.71 ± 3.14% | 0.39 | 10.54 | COc1ccc(C2=NN(C3CCCCCC3)C(=O)[C@@H]3CC=CC[C@@H]23)cc1OCCCCOc1ccc(-c2nn[nH]n2)cc1 [SR-05000022540] | 6.21 ± 10.10%
